Experiments:
H3K27Ac = assay: Intracellular H3K27Ac inhibitory activity in LK2 cells (Test Example 2); format: cell-based; details: Homo sapiens, LK-2, cultured with compound for 3 hours, read-out: Test Example 2 H3K27Ac Inhibition (LK2) IC50
Procedure, shortened: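 Human squamous lung cancer LK2 cells (40000/well) cultured overnight at 37 °C, 5% CO2 before treatment. After paraformaldehyde fixation, peroxide quench and blocking, H3K27 acetylation detected with anti-acetyl-H3K27 rabbit mAb (4 °C overnight) and HRP secondary; chemiluminescent read-out.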

CREBBP = CREBBP (Homo sapiens, UniProt Q92793); assay: Histone acetyltransferase inhibitory activity against CREBBP (Test Example 1); format: biochemical; details: 125 ng/mL CREBBP, 2 μM Acetyl-CoA, 100 nM Histone H4(1-25)-GSGSK (Biotin), 28° C. for 1 hour
Chain of CREBBP (Q92793 whole entry): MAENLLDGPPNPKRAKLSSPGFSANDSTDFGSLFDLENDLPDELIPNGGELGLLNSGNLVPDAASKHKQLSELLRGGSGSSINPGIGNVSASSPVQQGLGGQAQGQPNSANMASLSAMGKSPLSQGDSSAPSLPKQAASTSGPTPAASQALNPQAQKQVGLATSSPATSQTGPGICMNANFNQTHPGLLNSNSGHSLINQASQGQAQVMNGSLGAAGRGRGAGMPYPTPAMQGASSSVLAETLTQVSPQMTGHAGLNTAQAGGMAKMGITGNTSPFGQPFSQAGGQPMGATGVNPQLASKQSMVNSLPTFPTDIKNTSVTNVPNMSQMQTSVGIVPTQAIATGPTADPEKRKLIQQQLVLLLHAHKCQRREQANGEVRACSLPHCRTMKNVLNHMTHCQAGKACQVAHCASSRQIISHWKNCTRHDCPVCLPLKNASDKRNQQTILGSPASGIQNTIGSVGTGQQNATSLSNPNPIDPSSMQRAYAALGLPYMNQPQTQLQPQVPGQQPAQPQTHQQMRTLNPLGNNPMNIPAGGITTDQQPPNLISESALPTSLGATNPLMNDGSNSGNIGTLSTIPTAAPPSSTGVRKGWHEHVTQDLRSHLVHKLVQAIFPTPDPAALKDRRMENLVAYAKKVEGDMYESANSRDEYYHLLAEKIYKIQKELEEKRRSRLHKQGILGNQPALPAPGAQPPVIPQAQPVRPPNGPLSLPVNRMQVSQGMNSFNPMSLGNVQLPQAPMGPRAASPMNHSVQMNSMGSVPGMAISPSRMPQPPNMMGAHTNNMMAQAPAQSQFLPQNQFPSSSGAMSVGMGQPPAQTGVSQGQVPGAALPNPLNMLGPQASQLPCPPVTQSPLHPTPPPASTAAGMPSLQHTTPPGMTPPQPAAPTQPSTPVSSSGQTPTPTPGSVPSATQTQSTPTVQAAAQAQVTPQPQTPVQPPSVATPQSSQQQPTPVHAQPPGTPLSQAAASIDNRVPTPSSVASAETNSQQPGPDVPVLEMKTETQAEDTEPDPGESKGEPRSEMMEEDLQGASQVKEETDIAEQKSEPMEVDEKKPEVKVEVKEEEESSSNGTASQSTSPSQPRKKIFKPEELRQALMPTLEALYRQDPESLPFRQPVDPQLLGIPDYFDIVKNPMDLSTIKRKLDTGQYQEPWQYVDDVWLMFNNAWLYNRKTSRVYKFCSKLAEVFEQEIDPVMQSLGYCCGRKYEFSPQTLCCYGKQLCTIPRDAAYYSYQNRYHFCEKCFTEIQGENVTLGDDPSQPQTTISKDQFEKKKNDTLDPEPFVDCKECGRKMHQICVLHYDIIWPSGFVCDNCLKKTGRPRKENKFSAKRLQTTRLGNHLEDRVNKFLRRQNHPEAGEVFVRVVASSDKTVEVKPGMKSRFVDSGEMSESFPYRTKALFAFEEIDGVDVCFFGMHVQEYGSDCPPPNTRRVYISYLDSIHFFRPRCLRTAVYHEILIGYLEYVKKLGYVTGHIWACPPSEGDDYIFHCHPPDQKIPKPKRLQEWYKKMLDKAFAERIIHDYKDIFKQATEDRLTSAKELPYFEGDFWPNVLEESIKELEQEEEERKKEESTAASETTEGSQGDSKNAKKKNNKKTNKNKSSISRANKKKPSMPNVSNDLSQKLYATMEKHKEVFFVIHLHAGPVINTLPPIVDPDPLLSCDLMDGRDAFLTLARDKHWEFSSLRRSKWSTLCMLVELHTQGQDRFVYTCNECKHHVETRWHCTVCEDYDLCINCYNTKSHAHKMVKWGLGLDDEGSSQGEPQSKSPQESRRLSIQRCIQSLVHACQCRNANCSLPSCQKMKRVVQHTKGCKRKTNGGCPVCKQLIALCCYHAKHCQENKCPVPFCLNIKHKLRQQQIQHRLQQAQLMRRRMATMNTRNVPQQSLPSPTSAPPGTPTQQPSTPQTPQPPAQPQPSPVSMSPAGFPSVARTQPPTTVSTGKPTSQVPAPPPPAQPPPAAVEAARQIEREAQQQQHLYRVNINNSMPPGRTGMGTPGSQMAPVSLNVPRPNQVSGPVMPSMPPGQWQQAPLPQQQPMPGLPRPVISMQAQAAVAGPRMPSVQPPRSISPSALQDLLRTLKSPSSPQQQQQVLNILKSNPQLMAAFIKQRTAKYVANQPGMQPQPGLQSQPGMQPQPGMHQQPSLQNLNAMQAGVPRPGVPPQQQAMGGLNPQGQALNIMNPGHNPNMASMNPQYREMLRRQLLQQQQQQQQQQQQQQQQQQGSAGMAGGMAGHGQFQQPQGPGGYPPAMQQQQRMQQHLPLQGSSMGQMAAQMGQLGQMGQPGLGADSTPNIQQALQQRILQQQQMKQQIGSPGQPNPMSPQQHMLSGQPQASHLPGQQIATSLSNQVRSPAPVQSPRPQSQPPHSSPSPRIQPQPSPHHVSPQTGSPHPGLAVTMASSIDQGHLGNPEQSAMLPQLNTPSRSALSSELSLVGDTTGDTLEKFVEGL
Procedure, shortened: (§1)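 Enzyme (50 ng/mL EP300 or 125 ng/mL CREBBP) incubated 1 h at 28° C with 2 μM acetyl-CoA, 100 nM biotinylated histone H4(1-25) peptide and 10 to 0.0006 μM compound in pH 8.0 Tris buffer with 330 nM trichostatin A, 1% DMSO. Reaction stopped with Lys-CoA; acetylation read by TR-FRET (Eu-anti pan-Ac/Sta-ULight) after overnight room-temperature incubation.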

TE-8 cells [1] = assay: Cell growth inhibitory activity, TE-8 cells (Test Example 3); format: cell-based; details: Homo sapiens, 72 h, cultured for 3 days, CellTiter-Glo
Procedure, shortened: (§2)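 LK2 and TE-8 […] cells in RPMI 1640 with 10% FBS exposed to 10-point 4-fold dilutions (10 mM to 38 nM, stock series) for 3 days. ATP luminescence (CellTiter-Glo 2.0) at day 0 and day 3 gave survival as (T3−C0)/(C3−C0)×100; GI50 from semilog plot.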

EP300 = EP300 (Homo sapiens, UniProt Q09472); assay: Histone acetyltransferase inhibitory activity against EP300 (Test Example 1); format: biochemical; details: 50 ng/mL EP300, 2 μM Acetyl-CoA, 100 nM Histone H4(1-25)-GSGSK (Biotin), 28° C. for 1 hour
Chain of EP300 (Q09472 whole entry): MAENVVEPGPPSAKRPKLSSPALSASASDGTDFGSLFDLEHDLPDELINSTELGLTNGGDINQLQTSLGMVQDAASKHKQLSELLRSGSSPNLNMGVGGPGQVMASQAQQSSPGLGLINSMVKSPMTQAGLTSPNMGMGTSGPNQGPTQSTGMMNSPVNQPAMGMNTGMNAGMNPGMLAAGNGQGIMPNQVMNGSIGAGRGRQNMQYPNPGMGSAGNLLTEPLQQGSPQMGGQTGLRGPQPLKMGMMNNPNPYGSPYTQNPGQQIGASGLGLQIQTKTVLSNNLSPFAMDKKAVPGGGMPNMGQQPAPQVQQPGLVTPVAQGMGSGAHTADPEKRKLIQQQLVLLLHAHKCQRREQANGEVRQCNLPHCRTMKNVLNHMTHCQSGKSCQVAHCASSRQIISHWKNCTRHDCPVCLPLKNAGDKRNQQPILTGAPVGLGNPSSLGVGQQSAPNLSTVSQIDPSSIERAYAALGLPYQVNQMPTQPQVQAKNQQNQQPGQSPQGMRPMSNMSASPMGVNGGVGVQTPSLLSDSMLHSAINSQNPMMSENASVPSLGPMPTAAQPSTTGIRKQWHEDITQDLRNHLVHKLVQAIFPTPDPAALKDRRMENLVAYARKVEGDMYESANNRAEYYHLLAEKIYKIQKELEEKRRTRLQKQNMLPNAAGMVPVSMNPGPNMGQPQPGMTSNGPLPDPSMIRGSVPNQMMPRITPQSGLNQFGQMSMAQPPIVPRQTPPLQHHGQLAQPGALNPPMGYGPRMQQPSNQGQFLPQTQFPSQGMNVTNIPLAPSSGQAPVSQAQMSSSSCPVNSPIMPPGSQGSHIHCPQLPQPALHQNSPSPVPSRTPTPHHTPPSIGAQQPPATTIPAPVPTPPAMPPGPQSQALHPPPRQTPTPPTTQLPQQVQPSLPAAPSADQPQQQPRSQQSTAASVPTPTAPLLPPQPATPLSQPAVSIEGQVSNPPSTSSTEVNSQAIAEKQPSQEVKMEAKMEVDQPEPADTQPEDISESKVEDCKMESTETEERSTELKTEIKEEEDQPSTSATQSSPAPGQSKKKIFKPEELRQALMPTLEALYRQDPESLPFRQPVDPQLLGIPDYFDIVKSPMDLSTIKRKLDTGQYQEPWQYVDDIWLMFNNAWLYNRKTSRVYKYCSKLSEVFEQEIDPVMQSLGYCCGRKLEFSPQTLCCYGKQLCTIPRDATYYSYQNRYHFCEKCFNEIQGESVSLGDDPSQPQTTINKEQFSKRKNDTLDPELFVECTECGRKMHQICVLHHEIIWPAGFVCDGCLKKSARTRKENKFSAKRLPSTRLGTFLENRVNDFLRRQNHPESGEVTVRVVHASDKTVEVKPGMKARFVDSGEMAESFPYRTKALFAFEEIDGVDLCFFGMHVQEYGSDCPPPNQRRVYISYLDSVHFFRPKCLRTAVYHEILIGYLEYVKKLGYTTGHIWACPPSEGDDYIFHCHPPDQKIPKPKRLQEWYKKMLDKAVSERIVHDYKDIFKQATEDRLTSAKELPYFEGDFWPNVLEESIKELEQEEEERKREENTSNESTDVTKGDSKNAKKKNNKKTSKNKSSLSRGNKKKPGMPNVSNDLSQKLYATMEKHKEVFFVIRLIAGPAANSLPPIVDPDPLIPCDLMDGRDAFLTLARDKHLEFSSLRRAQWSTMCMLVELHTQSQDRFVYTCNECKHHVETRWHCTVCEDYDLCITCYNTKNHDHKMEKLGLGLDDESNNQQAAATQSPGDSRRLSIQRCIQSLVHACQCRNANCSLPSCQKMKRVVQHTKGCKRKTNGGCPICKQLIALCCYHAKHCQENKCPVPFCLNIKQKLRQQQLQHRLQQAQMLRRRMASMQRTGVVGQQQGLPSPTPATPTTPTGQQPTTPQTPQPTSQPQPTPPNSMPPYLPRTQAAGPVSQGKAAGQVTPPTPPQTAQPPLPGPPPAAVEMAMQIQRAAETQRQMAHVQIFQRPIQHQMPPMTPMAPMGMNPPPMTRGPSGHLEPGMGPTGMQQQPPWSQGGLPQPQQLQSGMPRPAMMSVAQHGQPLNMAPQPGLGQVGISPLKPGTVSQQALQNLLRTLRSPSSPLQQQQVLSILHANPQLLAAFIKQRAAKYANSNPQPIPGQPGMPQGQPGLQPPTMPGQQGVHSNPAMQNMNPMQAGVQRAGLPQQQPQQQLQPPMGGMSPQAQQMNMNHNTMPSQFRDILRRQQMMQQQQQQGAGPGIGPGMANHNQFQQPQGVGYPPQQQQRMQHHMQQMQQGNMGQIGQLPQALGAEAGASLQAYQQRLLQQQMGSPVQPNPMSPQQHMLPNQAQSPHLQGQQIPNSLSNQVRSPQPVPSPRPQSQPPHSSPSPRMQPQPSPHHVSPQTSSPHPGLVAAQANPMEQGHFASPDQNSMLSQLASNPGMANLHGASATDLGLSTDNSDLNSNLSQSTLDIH
Procedure, shortened: as §1

LK2 cells [2] = assay: Cell growth inhibitory activity, LK2 cells (Test Example 3); format: cell-based; details: Homo sapiens, LK-2, 72 h, cultured for 3 days, CellTiter-Glo
Procedure, shortened: as §2

LK2 cells [3] = assay: Antitumor activity in LK2 cell subcutaneous transplant model (Test Example 4); format: in vivo, female BALB/c-nu/nu mice; details: dose 6.25 mg/kg/day, test end day
Excerpt: [Test Example 4] Evaluation of Antitumor Activity in LK2 Cell Subcutaneous Transplant Model
LK2 cells were transplanted at a rate of 2×10^6 cells/head subcutaneously into a right abdominal site of each of female BALB/c-nu/nu mice, and 7 days after, the mice were grouped into groups each consisting of 5 mice based on an estimated tumor volume (longer diameter×shorter diameter×shorter diameter/2) and the weight. The LK2 cells were purchased from Human Science Research Resources Bank. […] The estimated tumor volume of each individual was measured from the day of grouping until 18 days after the transplantation (test end day).
(§3) The antitumor activity in LK2 cell subcutaneous transplant model of Test Example 4, the antitumor activity in TE-8 cell subcutaneous transplant model of Test Example 5, the antitumor activity in KARPASS-422 cell subcutaneous transplant model of Test Example 6, the antitumor activity in NMC10-15 cell subcutaneous transplant model of Test Example 7, and the antitumor activity in VCaP cell subcutaneous transplant model of Test Example 8 were respectively calculated on the end dates of the tests in accordance with the following equation: Tumor Growth Inhibition Rate %=(1−TVCt/TVCc)×100 TVC=(individual tumor volume on test end day)−(individual tumor volume on grouping day)
TVCt: average of TVC values of administration group […]

VCaP cells = assay: Antitumor activity in VCaP cell subcutaneous transplant model (Test Example 8); format: in vivo, male NSG mice; details: oral
Excerpt: [Test Example 8] Evaluation of Antitumor Activity in VCaP Cell Subcutaneous Transplant Model
VCaP cells derived from human prostate cancer were transplanted at a rate of 1×10^7 cells/head subcutaneously into a right abdominal site of each of male NSG mice, and 8 days after, the mice were grouped into groups each consisting of 5 mice based on an estimated tumor volume (longer diameter×shorter diameter×shorter diameter/2) and the weight. The VCaP cells were purchased from American Type Culture Collection. […] The estimated tumor volume of each individual was measured from the day of grouping until 24 days after the transplantation (test end day).
as §3, with “grouping day) […]” for “grouping day)”

NMC10-15 cells = assay: Antitumor activity in NMC10-15 cell subcutaneous transplant model (Test Example 7); format: in vivo, female BALB/c-nu/nu mice; details: NMC10-15 subcutaneous transplant model, oral, QD×9, 15 days after transplantation
Excerpt: [Test Example 7] Evaluation of Antitumor Activity in NMC10-15 Cell Subcutaneous Transplant Model
NMC10-15 cells derived from human nut midline carcinoma were transplanted at a rate of 5×10^6 cells/head subcutaneously into a right abdominal site of each of female BALB/c-nu/nu mice, and 6 days after, the mice were grouped into groups each consisting of 5 mice based on an estimated tumor volume (longer diameter×shorter diameter×shorter diameter/2) and the weight. […] The estimated tumor volume of each individual was measured from the day of grouping until 15 days after the transplantation (test end day).
as §3, with “grouping day) […]” for “grouping day)”

TE-8 cells [4] = assay: Antitumor activity in TE-8 cell subcutaneous transplant model (Test Example 5); format: in vivo, female BALB/c-nu/nu mice; details: TE-8 subcutaneous transplant model, dose 2 mg/kg/day, test end day
Excerpt: [Test Example 5] Evaluation of Antitumor Activity in TE-8 Cell Subcutaneous Transplant Model
TE-8 cells were transplanted at a rate of 1×10^7 cells/head subcutaneously into a right abdominal site of each of female BALB/c-nu/nu mice, and 9 days after (Example 73) or 10 days after (Examples 35 and 84), the mice were grouped into groups each consisting of 5 mice based on an estimated tumor volume (longer diameter×shorter diameter×shorter diameter/2) and the weight. The TE-8 cells were purchased from Riken Cell Bank. The female BALB/c-nu/nu mice were purchased from Charles River Laboratories Japan, Inc.
(§4) From the day of grouping, the compound of Example 73 at a dose set to 2 mg/kg/day was orally administered in accordance with a schedule of twice a day continuously for 9 days (BID x 9). The estimated tumor volume of each individual was measured from the day of grouping until 18 days after the transplantation (test end day).
as §4, with “Besides, from” for “From”, “[…]” for “73”, “11” for “9”, “11).” for “9).”, “21” for “18”
as §3
TVCt: average of TVC values of administration group
TVCc: average of TVC values of non-administration group

| IC50 (H3K27Ac) [nM] | IC50 (CREBBP) [nM] | IC50 (EP300) [nM] | Compound | GI50 (TE-8 cells [1]) [nM] | GI50 (LK2 cells [2]) [nM] | Tumor Growth Inhibition Rate (LK2 cells [3]) [%] | Tumor Growth Inhibition Rate (VCaP cells; dose 6 mg/kg/day, QD×16, 24 days after transplantation) [%] | Tumor Growth Inhibition Rate (NMC10-15 cells; dose 3 mg/kg/day) [%] | Tumor Growth Inhibition Rate (TE-8 cells [4]) [%] | Tumor Growth Inhibition Rate (VCaP cells; dose 10 mg/kg/day, QOD×8, 24 days after transplantation) [%] | Tumor Growth Inhibition Rate (NMC10-15 cells; dose 0.3 mg/kg/day) [%] |
| --- | --- | --- | --- | --- | --- | --- | --- | --- | --- | --- | --- |
| 16 | 18 | 14 | COc1ccc(C2(C(=O)N3C[C@H](F)C[C@@H]3C(=O)Nc3ccc4[nH]ncc4n3)CCCCC2)cc1F [Example 37, (4R)-4-Fluoro-1-{[1-(3-fluoro-4-methoxyphenyl)cyclohexyl]carbonyl}-N-1H-pyrazolo[4,3-b]pyridin-5-yl-D-prolinamide] | 113 | 85.9 | 42 |  |  |  |  |  |
| 54 | 67 | 28 | COc1ccc(C2(C(=O)N3C[C@H](F)C[C@@H]3C(=O)Nc3ccc4[nH]ncc4n3)CCC(F)(F)CC2)cc1 [Example 60, (4R)-1-{[4,4-Difluoro-1-(4-methoxyphenyl)cyclohexyl]carbonyl}-4-fluoro-N-1H-pyrazolo[4,3-b]pyridin-5-yl-D-prolinamide] | 311 | 211 |  | 89 | 99 |  |  |  |
| 17 | 73 | 35 | COc1ccc(C2(C(=O)N3C[C@H](F)C[C@@H]3C(=O)Nc3ccc4c(n3)CC(=O)N4)CCCCC2)cc1 [Example 66, (4R)-4-Fluoro-1-{[1-(4-methoxyphenyl)cyclohexyl]carbonyl}-N-(2-oxo-2,3-dihydro-1H-pyrrolo[3,2-b]pyridin-5-yl)-D-prolinamide] | 847 | 548 |  |  |  | 54 |  |  |
| 70 | 148 | 52 | COc1ccc(C2(C(=O)N3C[C@H](F)C[C@@H]3C(=O)Nc3ccc4c(n3)CC(=O)N4)CCC(F)(F)CC2)cc1 [Example 73, (4R)-1-{[4,4-Difluoro-1-(4-methoxyphenyl)cyclohexyl]carbonyl}-4-fluoro-N-(2-oxo-2,3-dihydro-1H-pyrrolo[3,2-b]pyridin-5-yl)-D-prolinamide] | 620 | 610 |  |  |  | 65 |  |  |
| 22 | 39 | 26 | O=C(Nc1ccc2[nH]ncc2n1)[C@H]1C[C@@H](F)CN1C(=O)C1(c2ccc(OC(F)F)cc2)CCC(F)(F)CC1 [Example 84, (4R)-1-({1-[4-(Difluoromethoxy)phenyl]-4,4-difluorocyclohexyl}carbonyl)-4-fluoro-N-1H-pyrazolo[4,3-b]pyridin-5-yl-D-prolinamide] | 152 | 97.2 |  |  |  |  | 77 | 66 |
| 138 | 58 | 26 | O=C(Nc1ccc2[nH]ncc2n1)[C@H]1C[C@@H](F)CN1C(=O)C1(c2ccc(NS(=O)(=O)c3ccccc3)cc2)CCC(F)(F)CC1 [Example 104, (4R)-1-[(4,4-Difluoro-1-{4-[(phenylsulfonyl)amino]phenyl}cyclohexyl)carbonyl]-4-fluoro-N-1H-pyrazolo[4,3-b]pyridin-5-yl-D-prolinamide] | 656 | 512 |  |  |  |  |  |  |
| 192 | 78 | 50 | COCc1cc2nc(NC(=O)[C@H]3C[C@@H](F)CN3C(=O)C3(c4ccc(OC(F)F)cc4)CCC(F)(F)CC3)ccc2[nH]1 [Example 105, (4R)-1-({1-[4-(Difluoromethoxy)phenyl]-4,4-difluorocyclohexyl}carbonyl)-4-fluoro-N-[2-(methoxymethyl)-1H-pyrrolo[3,2-b]pyridin-5-yl]-D-prolinamide] | 989 | 753 |  |  |  |  |  |  |
| 39 | 43 | 24 | O=C(Nc1ccc2[nH]c(CO)cc2n1)[C@H]1C[C@@H](F)CN1C(=O)C1(c2ccc(OC(F)F)cc2)CCC(F)(F)CC1 [Example 106, (4R)-1-({1-[4-(Difluoromethoxy)phenyl]-4,4-difluorocyclohexyl}carbonyl)-4-fluoro-N-[2-(hydroxymethyl)-1H-pyrrolo[3,2-b]pyridin-5-yl]-D-prolinamide] | 337 | 250 |  |  |  |  |  |  |
| 14 | 155 | 49 | COc1ccc(C2(C(=O)N(C)[C@H](CO)C(=O)Nc3ccc4[nH]ncc4n3)CCC(F)(F)CC2)cc1 [Example 107, 4,4-Difluoro-N-[(2R)-3-hydroxy-1-oxo-1-(1H-pyrazolo[4,3-b]pyridin-5-ylamino)propan-2-yl]-1-(4-methoxyphenyl)-N-methylcyclohexanecarboxamide] | 195 | 99.9 |  |  |  |  |  |  |

Source: patent US11274100B2, “EP300/CREBBP inhibitor” (Daiichi Sankyo Company, Limited, priority 2017, dated 2022)
